Entries after “also recorded” stand apart in the source; their conditions may differ. Where a name gives a salt, the structure may show the parent alone. One block for each compound: values may come before it.
Tests used:
Pooled human hepatocytes = assay: Hepatocyte elimination (in vitro metabolic stability, percent parent remaining by LC/MS/MS); format: in vitro ADME; details: for Rate of hepatocyte elimination / stability, comparison in words: compared with other forms
From the text: In vitro experiments with isotopically enriched cystamine and cysteamine in hepatocytes.
The assessment of in vitro metabolic stability provides a means to measure the susceptibility of a test compound to biotransformation by the liver. While liver microsomes primarily assess cytochrome P450 system-mediated metabolism (phase I metabolism), hepatocytes represent a complete, undisrupted metabolic system, including cofactors, and thus assess both phase I and phase II metabolism. In all cases, the metabolic stability of test compounds was determined by monitoring, via LC/MS/MS, the percent parent compound remaining versus time of incubation in human hepatocytes.
Pooled human hepatocytes (catalog number HMCS10, ThermoFischer Scientific) were thawed according to the manufacturers instructions. Thawed hepatocytes were washed by centrifugation and replated in Williams' Medium E supplemented with Heptocyte Plating Supplement Pack, Serum-containing.
Cells were diluted to 1,000,000 per ml in maintenance media (Williams' E Media supplemented with Hepatocyte Maintenance Supplement Pack, Serum-free). 500 μl of cell suspension was added to each well of a microtiter plate containing 500 μl of the deuterated test agent and placed on an orbital shaker at 120 rpm at 37 C. At the appropriate time point 50 μl aliquots were removed from the well and added to 50 μl of ice cold ethyl acetate and vortexed for 5 min and froze until chromatography analysis.

cystinotic fibroblasts [1] = assay: Intracellular NEM-cysteamine, NEM-cysteine, cystamine and mixed disulfide levels in cystinotic fibroblasts; format: cell-based, human; details: for NEM-cysteamine level during constant incubation: 100 uM drug, early timepoints, normalized against d4-cystine; for Intracellular cystamine level during constant drug incubation: FIG. 10; for NEM-cysteine level after 3 h incubation and washout: washout period
Procedure: (§1) In vitro experiments with isotopically enriched cystamine in cystinotic fibroblasts. Fibroblasts from a de-identified cystinotic patient were split 3× from 2 plates into 36 plates. Three different drugs were used for the experiments: cystamine (non-labeled), d2-cystamine, and d4-cystamine. There were two time series for each drug. The first was with constant drug incubation and included: 0, 10 min, 30 min, 1 h, 3 h, and 5 h. The other series included a washout after 3 h drug incubation, using fresh media following a PBS wash, and included the timepoints: 0, 30 min, 1 h, 3 h, 5 h, and 17 h. A direct quench and extraction technique were used for harvesting all cells to minimize further oxidation and metabolism. This included 2× washes with PBS that included 5 mM N-ethylmaleimide for trapping free thiol groups, and then scraping the plates with an acidified organic solvent extraction solution containing both d4-cystine and d4-cysteamine (plus d-8 cystamine) as internal standards. All samples were run on an API 4500 triple quadrupole LC-MS/MS, with selective reaction monitoring (SRM/MRM) for the following compounds of interest: cystine, NEM-cysteamine, NEM-cysteine, cystamine, and 2-(methylthio)ethylamine. All data fit well to single exponential curves (either decay or association), except where mentioned.
NEM-cysteamine and NEM-cysteine during constant incubation. Fibroblast cultures were exposed to drug (either cystamine, d2-cystamine, or d4-cystamine) and harvested as described on page 2 for the cystine depletion curve. NEM-cysteamine (or NEM-d1-cysteamine or NEM-d2-cysteamine) was measured for each respective plate and normalized against the signal for d4-cystine.
NEM-cysteamine during washout. Fibroblast cultures were exposed to drug (either cystamine, d2-cystamine, or d4-cystamine) for 3 h were then exposed to media for various timepoints and harvested as previously described.
NEM-cysteine during washout. Fibroblast cultures were exposed to drug (either cystamine, d2-cystamine, or d4-cystamine) for 3 h were then exposed to media for various timepoints and harvested as previously described.
Cystamine during constant drug incubation. Fibroblast cultures were exposed to drug (either cystamine, d2-cystamine, or d4-cystamine) for various timepoints following harvesting as described earlier. Cystamine could be measured in the non-labeled cystamine incubation as well as the d4-cystamine incubation. d2-cystamine could not be accurately measured due to a strong background interference signal corresponding to that mass. No cystamine could be measured in the washout experiments.

cystinotic fibroblasts [2] = assay: as above; format: cell-based, human; details: cystamine 50, 100, 200 μM compared with cysteamine 200 μM (FIG. 2)
cystinotic fibroblasts [3] = assay: Cystine depletion during constant drug exposure in cystinotic fibroblasts; format: cell-based, human; details: for Reduction of intracellular cystine levels: cystamine 50, 100, 200 μM, cysteamine 200 μM (FIG. 1); for Rate of intracellular cystine depletion, comparison in words: 100 uM constant exposure, 0-5 h, vs cystamine
Procedure: as §1
Following incubation, cells were washed 2× in PBS containing N-ethylmaleimide.
(§2) Fibroblasts from a de-identified cystinotic patient were split 3× from 2 plates into 18 plates. Two different drugs were used for the experiments: D4n-cystamine, and D8-cystamine. There were two time series for each drug. The first was with constant drug incubation and included: 0, 15 min, 30 min, 1 hr, and 3 hr. The other series included a washout after 3 hours of drug incubation, using fresh media following a PBS wash, and included the time-points: 0, 1 hr, 3 hr, and 16 hr. A direct quench and extraction technique was used for harvesting all cells to minimize further oxidation and metabolism. […] All samples were run on an API 4500 triple quadruple LC-MS/MS, with selective reaction monitoring (SRM/MRM) for the following compounds of interest: cystine, NEM-cysteamine, NEM-cysteine, and cystamine. All data fit well to single exponential curves (either decay or association), except where mentioned.

cystinotic fibroblasts [4] = assay: Cystine re-accumulation after washout in cystinotic fibroblasts; format: cell-based, human; details: for Cystine reaccumulation after washout, D4n vs D8: 50 μM for 3 hours, then media 1 h, 3 h, 16 h
Procedure: as §1
Cystine measurement after washout: Fibroblast cultures were exposed to 100 uM cystamine/d2-cystamine/d4-cystamine for 3 h. Following incubation, cells were washed with PBS, and then incubated with regular media (containing FBS) for the following timepoints: 0 min, 30 min, 1 h, 3 h, 5 h, and 17 h. Cells were harvested identically as described previously.
as §2
Fibroblast cultures were exposed to 50 μM cystamine (D8 or D4n) for 3 hours. Following incubation, cells were washed with PBS and then incubated with regular mediate containing FBS for 1 h, 3 h, and 16 h. Cells were harvested as above. […] Cystine reaccumulation between D4n-cystamine and D8-cystamine are very similar, indicating similar levels of drug remaining during the washout timepoints (FIG. 15).

[5] = tested on: intracellular cystine (circulating white blood cells); details: taken regularly; measured in circulating white blood cells; cited from earlier work
[6] = tested on: C57BL/6 male mice on CDAHFD diet; assay: In vivo NASH model, treatment phase (8 weeks CDAHFD, then 2 weeks daily gavage); details: for Fatty deposits / fat globules in liver, H&E staining: 200 mg/kg/day
Procedure: Liver Inflammatory Cells. CD11b stains macrophages and microglia. CD11b staining of liver tissue was taken after 10 weeks of CDAHFD in three groups of mice. […] At 8 weeks, treatment group 2 (“C2”) mice started gavage feeding with D2-Cystamine at 200 mg/kg/day once daily gavage, and treatment group 3 (“C3”) mice received D4-Cystamine at 200 mg/kg/day by once daily gavage.
(§3) In vivo NASH Models. NASH models from normal C57BL/6 male mice on CDAHFD diet (choline deficient, L-amino acid defined, high fat diet with restricted amount of methionine) were used. Two deuterated cystamine molecules were tested:
(§4) Two phase study was performed: (1) A prevention and (2) a treatment phase. 48 Mice were separated into nine groups of mice as described below. Histology at end of each study was performed looking for specific features of NASH (steatohepatitis, ballooning, fibrosis). The primary endpoint was plasma ALT measurement. Gene expression studies for fibrosis, inflammation were also performed.
(§5) Prevention Phase. Group 1: Control mice on CDAHFD for 8 weeks. Blood drawn at 0, 4, and 8 weeks. Group 2: Mice on CDAHFD plus D2 at 200 mg/kg/day for 8 weeks. Blood drawn at 0, 4, and 8 weeks. Group 3: Mice on CDAHFD plus D4 at 200 mg/kg/day for 8 weeks. Blood drawn at 0, 4, and 8 weeks. Group 4: Control mice (n=4) continue on CDAHFD for 2 weeks. Blood at baseline and at 2 weeks. Liver histology at 2 weeks. Group 5: Mice (n=4) on CDAHFD for 2 weeks plus D2 at 200 mg/kg/day administered via daily gavage. Blood at 0 and 2 weeks and histology at 2 weeks. Group 6: Mice (n=4) on CDAHFD for 2 weeks plus D4 at 200 mg/kg/day administered via daily gavage. Blood at 0 and 2 weeks and histology at 2 weeks.
Treatment Study Results. Groups 4, 5 and 6 mice received 8 weeks of CDAHDF diet before beginning treatment with deuterated compounds of the disclosure. During the treatment phase the mice continued to receive CDAHDF diet. Four mice were set in each group: control (C1) not receiving any drug; treatment (C2) receiving 200 mg/kg of cystamine D2 by once daily gavage; and treatment (C3) receiving 200 mg/kg cystamine D4 by once daily gavage.

[7] = tested on: C57BL/6 male mice on CDAHFD diet; assay: In vivo NASH model, prevention phase (drug in drinking water, 8 weeks); details: about 200 mg/kg/day in drinking water, n=8 per group
Procedure: as §3, §4
Drug (D2 or D4) was administered in drinking water at a concentration to deliver animals about 200 mg/kg/day of drug. Daily weight. Volume of fluid drunk/day was also measured.
as §5, with “Group 6: Mice (n=4) on CDAHFD for 2 weeks plus D4 at 200 mg/kg/day administered via daily gavage. Blood at 0 and 2 weeks and histology at 2 weeks.” left out

steatosis = details: 400-1000 IU/day for 4-10 months, cited from earlier work

Compound: 2-aminoethane-1-d-1-thiol hydrochloride [D-cysteamine]
Rate of hepatocyte elimination / stability, comparison in words (Pooled human hepatocytes): slower rate than cysteamine bitartrate

Hepatocyte elimination, % remaining (Pooled human hepatocytes; TIME 0 min): 100% | Hepatocyte elimination, % remaining (Pooled human hepatocytes; TIME 15 min): 18.5% | Hepatocyte elimination, % remaining (Pooled human hepatocytes; TIME 30 min): 6.5%
Compound: NCCSSCCN [Cystamine]
NEM-cysteamine level during constant incubation (cystinotic fibroblasts [1]): faster/higher; also recorded: Higher levels of cysteamine | NEM-cysteamine level during constant incubation (cystinotic fibroblasts [1]; listed as non-labeled cystamine): highest | Intracellular cystamine level during constant drug incubation (cystinotic fibroblasts [1]): deplete rapidly | Intracellular cystamine level during constant drug incubation (cystinotic fibroblasts [1]; listed as cystamine): depletes rapidly | NEM-cysteine level after 3 h incubation and washout (cystinotic fibroblasts [1]): rise and increase | Conversion of intracellular cystine to mixed disulfide (MD) of cysteine-cysteamine (cystinotic fibroblasts [2]): delayed | Reduction of intracellular cystine levels (cystinotic fibroblasts [3]): effective in reducing intracellular cystine levels in a dose-response fashion | Cystine level 17 h after washout versus plates not exposed to cystamine (cystinotic fibroblasts [4]; 3 h incubation with 100 μM cystamine, then cystamine-free media): identical to the 17 h cystine measurement

Compound: NCCS.O=C(O)C(O)C(O)C(=O)O (stereo not shown) [Cysteamine Bitartrate, reference compound]
Hepatocyte elimination, % remaining (Pooled human hepatocytes; TIME 0 min): 100% | Hepatocyte elimination, % remaining (Pooled human hepatocytes; TIME 15 min): 15.4% | Hepatocyte elimination, % remaining (Pooled human hepatocytes; TIME 30 min): 2.7% | Hepatocyte elimination, % remaining (Pooled human hepatocytes; TIME 60 min): 1.2%

Compound: NCCS [Cysteamine, reference compound]
Depletion of intracellular cystine [5]: up to 90% | Reduction of intracellular cystine levels (cystinotic fibroblasts [3]): effective and more rapid in its response time

Rate of hepatocyte elimination / stability, comparison in words (Pooled human hepatocytes): slower than non-deuterated cystamine
Compound: [2H]C(CN)SSC([2H])CN (stereo not drawn) [D2-Cystamine, 2,2′-disulfanediylbis(ethan-2-d-1-amine)dihydrochloride]
ALT versus untreated control group ([6]; 200 mg/kg once daily gavage, 2 weeks): significantly lower | Hepatic fibrosis, Sirius Red staining of liver sections ([6]; 200 mg/kg once daily gavage, 2 weeks, listed as D2): significant reduction in the amount of positive liver staining | Hepatic fibrosis, Sirius Red staining of liver sections ([6]; 200 mg/kg once daily gavage, 2 weeks, listed as cystamine D2): very significant reduction in hepatic fibrosis | Number of CD11b positive cells in liver tissue versus control group ([6]; 200 mg/kg/day once daily gavage, 2 weeks): statistically significant reduction | Fatty deposits / fat globules in liver, H&E staining ([6]; 2 weeks): reduction in fatty globules | Fatty deposits / fat globules in liver, H&E staining ([6]; 2 weeks, listed as D2): reduced fatty deposits compared to control | TIMP expression, qPCR, versus control ([6]; liver, 2 weeks of treatment): significant reduction | NEM-cysteine level after 3 h incubation and washout (cystinotic fibroblasts [1]): rise and increase | NEM-cysteine level after 3 h incubation and washout (cystinotic fibroblasts [1]; listed as D2): higher cysteine levels | ALT levels at 8 weeks versus control group [7]: statistically significant difference | Rate of intracellular cystine depletion, comparison in words (cystinotic fibroblasts [3]; listed as D2-cystamine): slightly slower kinetics | Rate of intracellular cystine depletion, comparison in words (cystinotic fibroblasts [3]; listed as d2-Cystamine): slightly slower kinetics | Rate of intracellular cystine depletion, comparison in words (cystinotic fibroblasts [3]; listed as d2-cystamine): slower | Cystine re-accumulation after washout, comparison in words (cystinotic fibroblasts [4]; 100 uM for 3 h, then drug-free media up to 17 h, vs cystamine): slightly faster

Compound: Cl.[2H]C([2H])(S)CN [D2-cysteamine, 2-mercaptoethan-2,2-d2-1-aminium chloride]
Rate of hepatocyte elimination / stability, comparison in words (Pooled human hepatocytes): slower rate than cysteamine bitartrate

Compound: [2H]C([2H])(N)CSSCC([2H])([2H])N [D4n-cystamine, 2,2′-disulfanediylbis(ethan-1,1-d2-1-aminium) chloride]
Cystine reaccumulation after washout, D4n vs D8 (cystinotic fibroblasts [4]): very similar

Compound: [2H]C([2H])(N)C([2H])([2H])SSC([2H])([2H])C([2H])([2H])N [D8-cystamine]
Cystine reaccumulation after washout, D4n vs D8 (cystinotic fibroblasts [4]): very similar

Hepatocyte elimination, % remaining (Pooled human hepatocytes; TIME 0 min): 100% | Hepatocyte elimination, % remaining (Pooled human hepatocytes; TIME 15 min): 22.6% | Hepatocyte elimination, % remaining (Pooled human hepatocytes; TIME 30 min): 24.3% | Hepatocyte elimination, % remaining (Pooled human hepatocytes; TIME 60 min): 0%
Compound: [2H]C(CN)SSC([2H])CN (stereo not shown) [drawing 24]

Hepatocyte elimination, % remaining (Pooled human hepatocytes; TIME 0 min): 100% | Hepatocyte elimination, % remaining (Pooled human hepatocytes; TIME 15 min): 131.4% | Hepatocyte elimination, % remaining (Pooled human hepatocytes; TIME 30 min): 35.9% | Hepatocyte elimination, % remaining (Pooled human hepatocytes; TIME 60 min): 14.5%
Compound: [2H]C([2H])(CN)SSC([2H])([2H])CN [drawing 25]

Compound: vitamin E
Mean AST level after treatment (steatosis; decreased from 104±61 IU/L): 33±11 IU/L | Mean ALT level after treatment (steatosis; decreased from 175±106 IU/L): 40±26 IU/L
